How the values were obtained:
[1] = test system: basal cells and pyramidal cells of the airway epithelium; assay: miRNA expression in sorted basal cells versus pyramidal cells (ciliated + secretory), HTS and Agilent chips; design: species or system human; settings: for Modulation of expression of the miRNAs in pyramidal cells (323(−)) relative to basal cells 323(+): HTS and Agilent chips; for Intensity of the level of expression in log2 in pyramidal cells (323(−)): pyramidal cells (ciliated + secretory)
Summary of the method: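 Read-out is miRNA profiling of total RNA, by Agilent chips or by high-throughput sequencing, in two sorted populations. These were basal cells (CD151+/TF+) and pyramidal ciliated/secretory cells (CD151−/TF−) from airway epithelium of 3 donors.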

[2] = test system: human airway epithelial cells (HAECs); assay: High-throughput sequencing (HTS) of miRNAs at four stages of differentiation of HAECs; settings: for Modulation (ratio of the level of intensity of expression in log2 in two stages of differentiation) measured by high-throughput sequencing, D7 − D0 / Modulation (ratio of the level of intensity of expression in log2 in two stages of differentiation) measured by high-throughput sequencing, FC − D7 / Modulation (ratio of the level of intensity of expression in log2 in two stages of differentiation) measured by high-throughput sequencing, WD − D0 / Modulation (ratio of the level of intensity of expression in log2 in two stages of differentiation) measured by high-throughput sequencing, WD − FC / Level of intensity of expression in log2 measured by high-throughput sequencing, D0 / Level of intensity of expression in log2 measured by high-throughput sequencing, D7 / Level of intensity of expression in log2 measured by high-throughput sequencing, FC / Level of intensity of expression in log2 measured by high-throughput sequencing, WD: Table VI; for Abundance (%), D0: ALI-D0; for Abundance (%), D7: ALI-D7; for Abundance (%), FC: ALI-FC; for Abundance (%), WD: ALI-WD; for Level of intensity of expression in log2 At the differentiated stage (WD) measured in HTS: healthy human airway epithelial tissue; for Level of intensity of expression in log2 measured by high-throughput sequencing, D0: stage D0; for Level of intensity of expression in log2 measured by high-throughput sequencing, D7: stage D7; for Level of intensity of expression in log2 measured by high-throughput sequencing, FC: stage FC; for Level of intensity of expression in log2 At the differentiated stage (WD) measured in HTS / Level of intensity of expression in log2 measured by high-throughput sequencing, WD: stage WD
Summary of the method: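 Cells at four air-liquid interface differentiation stages were lysed and total RNA with miRNAs purified. Adaptor Mix A or B ligation (16° C, 2-16 h) allowed 5′ or 3′ end sequencing. Abundance cut-off was 1% of total miRNAs in at least one stage.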

[3] = test system: human airway epithelial cells (HAECs); assay: Agilent miRNA chips, miRNA expression at four stages of differentiation of HAECs; settings: for Modulation (ratio of the level of intensity of expression in log2 in two stages of differentiation) measured with the Agilent chips, D7 − D0 / Modulation (ratio of the level of intensity of expression in log2 in two stages of differentiation) measured with the Agilent chips, FC − D7 / Modulation (ratio of the level of intensity of expression in log2 in two stages of differentiation) measured with the Agilent chips, WD − D0 / Modulation (ratio of the level of intensity of expression in log2 in two stages of differentiation) measured with the Agilent chips, WD − FC / Level of intensity of expression in log2 measured with the Agilent chips, D0 / Level of intensity of expression in log2 measured with the Agilent chips, D7 / Level of intensity of expression in log2 measured with the Agilent chips, FC / Level of intensity of expression in log2 measured with the Agilent chips, WD: Table VI; for Modulation (ratio of the level of intensity of expression in log2 at two stages of differentiation), FC − D7 / Modulation (ratio of the level of intensity of expression in log2 at two stages of differentiation), WD − FC: Agilent miRNA chips, Table V; for Level of intensity of expression in log2 measured with the Agilent chips, D0: stage D0; for Level of intensity of expression in log2 measured with the Agilent chips, D7: stage D7; for Level of intensity of expression in log2 measured with the Agilent chips, FC: stage FC; for Level of intensity of expression in log2 measured with the Agilent chips, WD: stage WD
Summary of the method: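 RNA from the same patients used for small-RNA sequencing was labelled and hybridized to a Human miRNA Microarray v2 (866 human and 89 human viral miRNAs, covering miRBase v.12.0) with the kit's labelling and hybridization protocol, giving miRNA expression profiles to compare against the sequencing data.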

| Substance | Modulation of expression of the miRNAs in pyramidal cells (323(−)) relative to basal cells 323(+) [1] | Intensity of the level of expression in log2 in basal cells (323(+)) [1] [log2] | Intensity of the level of expression in log2 in pyramidal cells (323(−)) [1] [log2] | Modulation (ratio of the level of intensity of expression in log2 in two stages of differentiation) measured by high-throughput sequencing, D7 − D0 [2] [log2] | Modulation (ratio of the level of intensity of expression in log2 in two stages of differentiation) measured by high-throughput sequencing, FC − D7 [2] [log2] | Modulation (ratio of the level of intensity of expression in log2 in two stages of differentiation), D7 − D0 ([2]; HTS) [log2] | Modulation (ratio of the level of intensity of expression in log2 in two stages of differentiation), FC − D7 ([2]; HTS) [log2] | Modulation (ratio of the level of intensity of expression in log2 in two stages of differentiation), WD − FC ([2]; HTS) [log2] | Abundance (%), D0 ([2]; HTS) [%] | Abundance (%), D7 ([2]; HTS) [%] | Abundance (%), FC ([2]; HTS) [%] | Abundance (%), WD ([2]; HTS) [%] | Modulation (ratio of the level of intensity of expression in log2 in two stages of differentiation) measured by high-throughput sequencing, WD − D0 [2] [log2] | Modulation (ratio of the level of intensity of expression in log2 in two stages of differentiation) measured by high-throughput sequencing, WD − FC [2] [log2] | Level of intensity of expression in log2 At the differentiated stage (WD) measured in HTS [2] [log2] | Level of intensity of expression in log2 measured by high-throughput sequencing, D0 [2] [log2] | Level of intensity of expression in log2 measured by high-throughput sequencing, D7 [2] [log2] | Level of intensity of expression in log2 measured by high-throughput sequencing, FC [2] [log2] | Level of intensity of expression in log2 measured by high-throughput sequencing, WD [2] [log2] | Modulation (ratio of the level of intensity of expression in log2 in two stages of differentiation) measured with the Agilent chips, D7 − D0 [3] [log2] | other results |
| --- | --- | --- | --- | --- | --- | --- | --- | --- | --- | --- | --- | --- | --- | --- | --- | --- | --- | --- | --- | --- | --- |
| hsa-miR-125a-5p: human miRNA, SEQ ID No. 3 (UCCCUGAGACCCUUUAACCUGUGA; expressed or natural sequence; listed as Homo sapiens) | −0.05 | 6.63 | 6.58 | 0.64 | −0.27 | 0.64 | −0.27 | 0.79 | 1.69 | 2.64 | 2.13 | 2.79 | 1.16 | 0.79 | 14.08 | 12.92 | 13.55 | 13.29 | 14.08 | 1.29 | Modulation (ratio of the level of intensity of expression in log2 at two stages of differentiation), FC − D7 [3]: −0.46 log2; Modulation (ratio of the level of intensity of expression in log2 in two stages of differentiation) measured with the Agilent chips, FC − D7 [3]: −0.46 log2; Modulation (ratio of the level of intensity of expression in log2 in two stages of differentiation) measured with the Agilent chips, WD − D0 [3]: 0.79 log2; Modulation (ratio of the level of intensity of expression in log2 at two stages of differentiation), WD − FC [3]: −0.04 log2; Modulation (ratio of the level of intensity of expression in log2 in two stages of differentiation) measured with the Agilent chips, WD − FC [3]: −0.04 log2; Level of intensity of expression in log2 measured with the Agilent chips, D0 [3]: 7.37 log2; Level of intensity of expression in log2 measured with the Agilent chips, D7 [3]: 8.66 log2; Level of intensity of expression in log2 measured with the Agilent chips, FC [3]: 8.20 log2; Level of intensity of expression in log2 measured with the Agilent chips, WD [3]: 8.15 log2 |
| hsa-miR-203: human miRNA, SEQ ID No. 19 (GUGAAAUGUUUAGGACCACUAG; expressed or natural sequence; listed as Homo sapiens) | −3.50 | 3.64 | 0.14 | 0.11 | −0.21 | 0.11 | −0.21 | 1.18 | 2.53 | 2.73 | 2.29 | 3.92 | 1.08 | 1.18 | 14.55 | 13.50 | 13.60 | 13.39 | 14.57 | 0.97 | Level of intensity of expression in log2, D0 ([2]; HTS, ALI-D0 (proliferation)): 13.49 log2; Modulation (ratio of the level of intensity of expression in log2 in two stages of differentiation) measured with the Agilent chips, FC − D7 [3]: −0.67 log2; Modulation (ratio of the level of intensity of expression in log2 in two stages of differentiation) measured with the Agilent chips, WD − D0 [3]: 0.44 log2; Modulation (ratio of the level of intensity of expression in log2 in two stages of differentiation) measured with the Agilent chips, WD − FC [3]: 0.13 log2; Level of intensity of expression in log2 measured with the Agilent chips, D0 [3]: 10.64 log2; Level of intensity of expression in log2 measured with the Agilent chips, D7 [3]: 11.61 log2; Level of intensity of expression in log2 measured with the Agilent chips, FC [3]: 10.95 log2; Level of intensity of expression in log2 measured with the Agilent chips, WD [3]: 11.08 log2 |
| hsa-miR-23b: human miRNA, SEQ ID No. 26 (AUCACAUUGCCAGGGAUUACC; expressed or natural sequence; listed as Homo sapiens) | −2.23 | 9.41 | 7.18 | 1.30 | −0.17 | 1.30 | −0.17 | 0.16 | 3.73 | 9.19 | 7.92 | 6.72 | 1.29 | 0.16 | 9.35 | 14.06 | 15.35 | 15.18 | 15.35 | 1.96 | Modulation (ratio of the level of intensity of expression in log2 at two stages of differentiation), FC − D7 [3]: −0.27 log2; Modulation (ratio of the level of intensity of expression in log2 in two stages of differentiation) measured with the Agilent chips, FC − D7 [3]: −0.27 log2; Modulation (ratio of the level of intensity of expression in log2 in two stages of differentiation) measured with the Agilent chips, WD − D0 [3]: 1.72 log2; Modulation (ratio of the level of intensity of expression in log2 at two stages of differentiation), WD − FC [3]: 0.04 log2; Modulation (ratio of the level of intensity of expression in log2 in two stages of differentiation) measured with the Agilent chips, WD − FC [3]: 0.04 log2; Level of intensity of expression in log2 measured with the Agilent chips, D0 [3]: 8.92 log2; Level of intensity of expression in log2 measured with the Agilent chips, D7 [3]: 10.88 log2; Level of intensity of expression in log2 measured with the Agilent chips, FC [3]: 10.61 log2; Level of intensity of expression in log2 measured with the Agilent chips, WD [3]: 10.64 log2 |
